System: SUM149PT spheroids with HUVEC/MSC, viability
Test: Anticancer human tumor SUM149PT cell line growth inhibition [GQUAD];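 also: spheroids exposed to drugs for seven days before readout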;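 as to viability, T/C: percent viability relative to DMSO vehicle control taken as 100%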
Conditions: for IC50: curve of first compound; for viability, T/C: stronger effect = lower value
Summary of the method: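 Viability of tumor cells grown as complex spheroids with endothelial and stromal cells, exposed to drug combinations. Top concentration at or near clinical Cmax (else 10 microM), diluted in half-log increments.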

[1] = second compound 0.0316 µM, first compound 0.0316 µM
[2] = second compound 0.0316 µM, first compound 0.1 µM
[3] = second compound 0.0316 µM, first compound 0.316 µM
[4] = second compound 0.0316 µM, first compound 1 µM
[5] = second compound 0.0316 µM, first compound 3.16 µM
[6] = second compound 0.0316 µM, first compound 10 µM
[7] = second compound 0.1 µM, first compound 0.0316 µM
[8] = second compound 0.1 µM, first compound 0.1 µM
[9] = second compound 0.1 µM, first compound 0.316 µM
[10] = second compound 0.1 µM, first compound 1 µM
[11] = second compound 0.1 µM, first compound 3.16 µM
[12] = second compound 0.1 µM, first compound 10 µM
[13] = second compound 0.316 µM, first compound 0.0316 µM
[14] = second compound 0.316 µM, first compound 0.1 µM
[15] = second compound 0.316 µM, first compound 0.316 µM
[16] = second compound 0.316 µM, first compound 1 µM
[17] = second compound 0.316 µM, first compound 3.16 µM
[18] = second compound 0.316 µM, first compound 10 µM
[19] = second compound 1 µM, first compound 0.0316 µM
[20] = second compound 1 µM, first compound 0.1 µM
[21] = second compound 1 µM, first compound 0.316 µM
[22] = second compound 1 µM, first compound 1 µM
[23] = second compound 1 µM, first compound 3.16 µM
[24] = second compound 1 µM, first compound 10 µM
[25] = second compound 3.16 µM, first compound 0.0316 µM
[26] = second compound 3.16 µM, first compound 0.1 µM
[27] = second compound 3.16 µM, first compound 0.316 µM
[28] = second compound 3.16 µM, first compound 1 µM
[29] = second compound 3.16 µM, first compound 3.16 µM
[30] = second compound 3.16 µM, first compound 10 µM
[31] = second compound 10 µM, first compound 0.0316 µM
[32] = second compound 10 µM, first compound 0.1 µM
[33] = second compound 10 µM, first compound 0.316 µM
[34] = second compound 10 µM, first compound 1 µM
[35] = second compound 10 µM, first compound 3.16 µM
[36] = second compound 10 µM, first compound 10 µM

`C#Cc1c(F)ccc2cc(O)cc(-c3ncc4c(N5CC6CCC(C5)N6)nc(OCC56CCCN5CC(F)C6)nc4c3F)c12` (stereo not drawn) + Cc1[nH]c2ccc(F)cc2c1-c1nc2c3cccnc3c3ncccc3c2[nH]1 gave an IC50 (second compound 0.0316 µM) of 4.72 µM, an IC50 (second compound 0.1 µM) of 5.52 µM and an IC50 (second compound 0.316 µM) of 3.77 µM. The IC50 (second compound 1 µM) was 5.38 µM, the IC50 (second compound 3.16 µM) was 5.61 µM and the IC50 (second compound 10 µM) was 3.43 µM. For the same molecule, the viability, T/C [1] was 103%, the viability, T/C [2] was 96.5% and the viability, T/C [3] was 93%. The viability, T/C [4] was 72%, the viability, T/C [5] was 57.6% and the viability, T/C [6] was 38.4%. The viability, T/C [7] was 106%, the viability, T/C [8] was 98.9% and the viability, T/C [9] was 94.7%. For the same molecule, the viability, T/C [10] was 87.2%, the viability, T/C [11] was 54.8% and the viability, T/C [12] was 44.2%. It also gave a viability, T/C [13] of 110%, a viability, T/C [14] of 96.5% and a viability, T/C [15] of 83.8%. The viability, T/C [16] was 74.6%, the viability, T/C [17] was 48.5% and the viability, T/C [18] was 37%. The viability, T/C [19] was 95%, the viability, T/C [20] was 90% and the viability, T/C [21] was 87.3%. The viability, T/C [22] was 76.5%, the viability, T/C [23] was 55.9% and the viability, T/C [24] was 42.6%. The viability, T/C [25] was 96.9%, the viability, T/C [26] was 85.2% and the viability, T/C [27] was 83.7%. The viability, T/C [28] was 76.2%, the viability, T/C [29] was 52.9% and the viability, T/C [30] was 45%. It also gave a viability, T/C [31] of 102%, a viability, T/C [32] of 82.3% and a viability, T/C [33] of 88.2%. For the same molecule, the viability, T/C [34] was 60.2%, the viability, T/C [35] was 52.2% and the viability, T/C [36] was 35.6%.

Molecule `CC1COCCN1c1cc(-c2ccnn2C)c2ccnc(-c3ccn[nH]3)c2n1` (stereo not drawn) + CN(C)c1ccc(Nc2c3ccc(NC(=O)CCN4CCCC4)cc3nc3cc(NC(=O)CCN4CCCC4)ccc23)cc1 has an IC50 (second compound 0.0316 µM) of 0.0933 µM, an IC50 (second compound 0.1 µM) of 0.0927 µM and an IC50 (second compound 0.316 µM) of 0.0913 µM. The IC50 (second compound 1 µM) was 0.0897 µM, the IC50 (second compound 3.16 µM) was 0.0884 µM and the IC50 (second compound 10 µM) was 0.0657 µM. The viability, T/C [1] was 96.3%, the viability, T/C [2] was 46.9% and the viability, T/C [3] was 29.1%. For the same molecule, the viability, T/C [4] was 23.2%, the viability, T/C [5] was 38.2% and the viability, T/C [6] was 28%. It also gave a viability, T/C [7] of 87.8%, a viability, T/C [8] of 47.3% and a viability, T/C [9] of 29.6%. It also gave a viability, T/C [10] of 29.4%, a viability, T/C [11] of 30% and a viability, T/C [12] of 36.1%. The viability, T/C [13] was 87.5%, the viability, T/C [14] was 46.8% and the viability, T/C [15] was 26%. It also gave a viability, T/C [16] of 26.5%, a viability, T/C [17] of 28.1% and a viability, T/C [18] of 29.2%. The viability, T/C [19] was 82.6%, the viability, T/C [20] was 46.6% and the viability, T/C [21] was 26.4%. It also gave a viability, T/C [22] of 23.7%, a viability, T/C [23] of 26.8% and a viability, T/C [24] of 29.4%. It also gave a viability, T/C [25] of 79%, a viability, T/C [26] of 46.5% and a viability, T/C [27] of 20.7%. The viability, T/C [28] was 23.5%, the viability, T/C [29] was 25.6% and the viability, T/C [30] was 24.2%. It also gave a viability, T/C [31] of 69.9%, a viability, T/C [32] of 38% and a viability, T/C [33] of 28.9%. The viability, T/C [34] was 24.9%, the viability, T/C [35] was 25.4% and the viability, T/C [36] was 21.9%.

`COc1ncnc(C2CC2)c1-c1ncc2cnn(Cc3ccc(-c4nc(C(F)(F)F)cn4C(C)C)cc3)c2n1` + Cc1cnc(CNC(=O)c2c(=O)c3ccc(N4CCCN(C)CC4)nc3n3c2sc2ccccc23)cn1 was tested, and the IC50 (second compound 0.0316 µM) was over 10 µM, the IC50 (second compound 0.1 µM) was 0.0316 µM and the IC50 (second compound 0.316 µM) was under 0.0316 µM. The IC50 (second compound 1 µM) was under 0.0316 µM, the IC50 (second compound 3.16 µM) was under 0.0316 µM and the IC50 (second compound 10 µM) was under 0.0316 µM. The viability, T/C [1] was 87.3%, the viability, T/C [2] was 63.3% and the viability, T/C [3] was 62.1%. The viability, T/C [4] was 61.9%, the viability, T/C [5] was 70.5% and the viability, T/C [6] was 81.5%. It also gave a viability, T/C [7] of 55.3%, a viability, T/C [8] of 57.5% and a viability, T/C [9] of 45.2%. It also gave a viability, T/C [10] of 48.1%, a viability, T/C [11] of 57.1% and a viability, T/C [12] of 62.7%. The viability, T/C [13] was 45.1%, the viability, T/C [14] was 50.3% and the viability, T/C [15] was 45.6%. The viability, T/C [16] was 43.1%, the viability, T/C [17] was 48.1% and the viability, T/C [18] was 56.1%. It also gave a viability, T/C [19] of 37.4%, a viability, T/C [20] of 38.4% and a viability, T/C [21] of 47.1%. The viability, T/C [22] was 41.4%, the viability, T/C [23] was 40% and the viability, T/C [24] was 49.4%. It also gave a viability, T/C [25] of 35%, a viability, T/C [26] of 32.9% and a viability, T/C [27] of 34.1%. It also gave a viability, T/C [28] of 33.5%, a viability, T/C [29] of 40% and a viability, T/C [30] of 39.1%. It also gave a viability, T/C [31] of 0.16%, a viability, T/C [32] of 11.9% and a viability, T/C [33] of 27.6%. For the same molecule, the viability, T/C [34] was 11%, the viability, T/C [35] was 3.43% and the viability, T/C [36] was 1.12%.

`O=c1[nH]cc(F)c(=O)[nH]1` + Cc1[nH]c2ccc(F)cc2c1-c1nc2c3cccnc3c3ncccc3c2[nH]1 was tested, and the IC50 (second compound 0.0316 µM) was 7.57 µM, the IC50 (second compound 0.1 µM) was 6.93 µM and the IC50 (second compound 0.316 µM) was over 10 µM. For the same molecule, the IC50 (second compound 1 µM) was 7.58 µM, the IC50 (second compound 3.16 µM) was 5.27 µM and the IC50 (second compound 10 µM) was 3.52 µM. It also gave a viability, T/C [1] of 103%, a viability, T/C [2] of 97.3% and a viability, T/C [3] of 107%. It also gave a viability, T/C [4] of 95.6%, a viability, T/C [5] of 57.8% and a viability, T/C [6] of 47.5%. The viability, T/C [7] was 104%, the viability, T/C [8] was 101% and the viability, T/C [9] was 108%. For the same molecule, the viability, T/C [10] was 111%, the viability, T/C [11] was 58.3% and the viability, T/C [12] was 46.1%. The viability, T/C [13] was 99.6%, the viability, T/C [14] was 104% and the viability, T/C [15] was 97.7%. For the same molecule, the viability, T/C [16] was 102%, the viability, T/C [17] was 61.9% and the viability, T/C [18] was 48.5%. For the same molecule, the viability, T/C [19] was 103%, the viability, T/C [20] was 107% and the viability, T/C [21] was 98.4%. It also gave a viability, T/C [22] of 110%, a viability, T/C [23] of 63.9% and a viability, T/C [24] of 45.6%. For the same molecule, the viability, T/C [25] was 97.5%, the viability, T/C [26] was 98.1% and the viability, T/C [27] was 102%. It also gave a viability, T/C [28] of 103%, a viability, T/C [29] of 56.2% and a viability, T/C [30] of 42.1%. For the same molecule, the viability, T/C [31] was 79.9%, the viability, T/C [32] was 85.1% and the viability, T/C [33] was 101%. The viability, T/C [34] was 99.5%, the viability, T/C [35] was 51.2% and the viability, T/C [36] was 37.2%.
